Source: patent US20250049778A1, “CRYSTALLINE FORM OF GLP-1 RECEPTOR AGONIST AND PREPARATION METHOD THEREFOR” (JIANGSU HENGRUI PHARMACEUTICALS CO., LTD., priority 2021, published 2025)

Experiments:
Assay type in all cases: physicochemical
[1] = Stability of crystal forms placed open under illumination, high temperature and high humidity, 30 days; settings: for Physical and chemical stability (summary): illumination, 40° C. and 60° C., 75% RH and 92.5% RH
From the text: The sampling and investigation period was 30 days.

[2] = Hygroscopicity of crystal forms by dynamic vapor sorption (DVS) at 25° C.; settings: for Crystal form after DVS: two cycles
Procedure: Surface Measurement Systems advantage 2 is used for detection at 25° C. The humidity is 50%-95%-0%-95%-50% RH. The step is 10%. The criterion is that the mass change dM/dT for each step is less than 0.002%. TMAX is 360 min. Two cycles are carried out.
Surface Measurement Systems intrinsic DVS was used at 25° C. The observed humidity ranged from 0% to 95%. The step was 10%. The criterion was that the mass change dM/dT for each step was less than 0.002%. TMAX was 360 min. Two cycles were carried out.

[3] = Long-term/accelerated stability, sealed with aluminum foil bag
From the text: The results were as shown below.

[4] = Illumination (4500 Lux), 5 days
[5] = Illumination (4500 Lux), 10 days
[6] = Illumination (4500 Lux), 30 days

**Q.** For `O=C(O)c1ccc2nc(CN3CCC(c4cccc5c4O[C@@H](c4ccc(Cl)cc4F)CO5)CC3)n(C[C@@H]3CCO3)c2c1` [Crystal form A of Compound A, 2-((4-((S)-3-(4-chloro-2-fluorophenyl)-2,3-dihydrobenzo[b][1,4]dioxan-5-yl)piperidin-1-yl)methyl)-1-(((S)-oxetan-2-yl)methyl)-1H-benzo[d]imidazole-6-carboxylic acid], which Purity % ([1]; 40° C., 5 days) is on record?
**A.** 98.8%

**Q.** And the Purity % ([1]; 40° C., 10 days)?
**A.** 98.8%

**Q.** What about the Purity % ([1]; 40° C., 30 days) of the same compound?
**A.** 98.8%

**Q.** What about the Purity % ([1]; 60° C., 5 days) of the same compound?
**A.** 98.8%

**Q.** What about the Purity % ([1]; 60° C., 10 days) of the same compound?
**A.** 98.7%

**Q.** What about the Purity % ([1]; 60° C., 30 days) of the same compound?
**A.** 98.8%

**Q.** And the Purity % ([1]; 75% RH, 5 days)?
**A.** 98.7%

**Q.** And the Purity % ([1]; 75% RH, 10 days)?
**A.** 98.7%

**Q.** And the Purity % ([1]; 75% RH, 30 days)?
**A.** 98.7%

**Q.** What about the Purity % ([1]; 92.5% RH, 5 days) of the same compound?
**A.** 98.8%

**Q.** What about the Purity % ([1]; 92.5% RH, 10 days) of the same compound?
**A.** 98.7%

**Q.** What about the Purity % ([1]; 92.5% RH, 30 days) of the same compound?
**A.** 98.8%

**Q.** And the Purity % [1, 4]?
**A.** 98.7%

**Q.** What about the Purity % [1, 5] of the same compound?
**A.** 98.7%

**Q.** And the Purity % [1, 6]?
**A.** 98.8%

**Q.** What about the Purity % ([1]; Initial condition, 0 days) of the same compound?
**A.** 98.7%

**Q.** What about the “Physical and chemical stability (summary)” value ([1]; 30 days) of the same compound?
**A.** good physical and chemical stability

**Q.** What about the “Hygroscopic weight gain 0.0% RH to 80.0% RH” value [2] of the same compound?
**A.** 0.65%

**Q.** And the “Crystal form after DVS” value [2]?
**A.** Unchanged

**Q.** And the Purity % ([3]; 25° C./60% RH, 1 month)?
**A.** 99.5%

**Q.** And the Purity % ([3]; 25° C./60% RH, 3 months)?
**A.** 99.5%

**Q.** And the Purity % ([3]; 25° C./60% RH, 6 months)?
**A.** 99.5%

**Q.** What about the Crystal form ([3]; 25° C./60% RH, up to 6 months) of the same compound?
**A.** Unchanged

**Q.** What about the Purity % ([3]; 40° C./75% RH, 1 month) of the same compound?
**A.** 99.5%

**Q.** And the Purity % ([3]; 40° C./75% RH, 3 months)?
**A.** 99.5%

**Q.** What about the Purity % ([3]; 40° C./75% RH, 6 months) of the same compound?
**A.** 99.5%

**Q.** And the Crystal form ([3]; 40° C./75% RH, up to 6 months)?
**A.** Unchanged

**Q.** What about the Purity % ([3]; Initial condition) of the same compound?
**A.** 99.5%

**Q.** And the “Physical and chemical stability (summary)” value ([3]; placed for 6 months under long-term accelerated conditions)?
**A.** good physical and chemical stability

**Q.** With `O=C(O)c1ccc2nc(CN3CCC(c4cccc5c4O[C@@H](c4ccc(Cl)cc4F)CO5)CC3)n(C[C@@H]3CCO3)c2c1` [Crystal form D of Compound A, 2-((4-((S)-3-(4-chloro-2-fluorophenyl)-2,3-dihydrobenzo[b][1,4]dioxan-5-yl)piperidin-1-yl)methyl)-1-(((S)-oxetan-2-yl)methyl)-1H-benzo[d]imidazole-6-carboxylic acid] as the compound, how does the Purity % ([1]; 40° C., 5 days) read?
**A.** 98.4%

**Q.** What about the Purity % ([1]; 40° C., 10 days) of the same compound?
**A.** 98.5%

**Q.** And the Purity % ([1]; 40° C., 30 days)?
**A.** 98.5%

**Q.** What about the Purity % ([1]; 60° C., 5 days) of the same compound?
**A.** 98.5%

**Q.** What about the Purity % ([1]; 60° C., 10 days) of the same compound?
**A.** 98.6%

**Q.** What about the Purity % ([1]; 60° C., 30 days) of the same compound?
**A.** 98.6%

**Q.** What about the Purity % ([1]; 75% RH, 5 days) of the same compound?
**A.** 98.5%

**Q.** What about the Purity % ([1]; 75% RH, 10 days) of the same compound?
**A.** 98.6%

**Q.** And the Purity % ([1]; 75% RH, 30 days)?
**A.** 98.5%

**Q.** What about the Purity % ([1]; 92.5% RH, 5 days) of the same compound?
**A.** 98.6%

**Q.** And the Purity % ([1]; 92.5% RH, 10 days)?
**A.** 98.6%

**Q.** And the Purity % ([1]; 92.5% RH, 30 days)?
**A.** 98.5%

**Q.** And the Purity % [1, 4]?
**A.** 98.5%

**Q.** What about the Purity % [1, 5] of the same compound?
**A.** 98.6%

**Q.** And the Purity % [1, 6]?
**A.** 98.6%

**Q.** And the Purity % ([1]; Initial condition, 0 days)?
**A.** 98.5%

**Q.** What about the “Physical and chemical stability (summary)” value ([1]; 30 days) of the same compound?
**A.** good physical and chemical stability

**Q.** And the “Hygroscopic weight gain 0.0% RH to 80.0% RH” value [2]?
**A.** 1.95%

**Q.** And the “Crystal form after DVS” value [2]?
**A.** Unchanged

**Q.** What about the Purity % ([3]; 25° C./60% RH, 1 month) of the same compound?
**A.** 98.6%

**Q.** And the Purity % ([3]; 25° C./60% RH, 2 months)?
**A.** 98.6%

**Q.** And the Purity % ([3]; 25° C./60% RH, 3 months)?
**A.** 98.5%

**Q.** What about the Crystal form ([3]; 25° C./60% RH, up to 3 months) of the same compound?
**A.** Unchanged

**Q.** And the Purity % ([3]; 40° C./75% RH, 1 month)?
**A.** 98.6%

**Q.** What about the Purity % ([3]; 40° C./75% RH, 2 months) of the same compound?
**A.** 98.4%

**Q.** What about the Purity % ([3]; 40° C./75% RH, 3 months) of the same compound?
**A.** 98.3%

**Q.** And the Crystal form ([3]; 40° C./75% RH, up to 3 months)?
**A.** Unchanged

**Q.** What about the Purity % ([3]; Initial condition) of the same compound?
**A.** 98.5%

**Q.** And the “Physical and chemical stability (summary)” value ([3]; placed for 3 months under long-term accelerated conditions)?
**A.** good physical and chemical stability
